Molecular target: T1, human chemokine receptor 2 isoform B (Homo sapiens, UniProt P41597)
T1 construct: host or cells: CHOK1-CCR2B-A5 (CHO-K1)
T1 sequence (P41597 1-360 isoform P41597-2): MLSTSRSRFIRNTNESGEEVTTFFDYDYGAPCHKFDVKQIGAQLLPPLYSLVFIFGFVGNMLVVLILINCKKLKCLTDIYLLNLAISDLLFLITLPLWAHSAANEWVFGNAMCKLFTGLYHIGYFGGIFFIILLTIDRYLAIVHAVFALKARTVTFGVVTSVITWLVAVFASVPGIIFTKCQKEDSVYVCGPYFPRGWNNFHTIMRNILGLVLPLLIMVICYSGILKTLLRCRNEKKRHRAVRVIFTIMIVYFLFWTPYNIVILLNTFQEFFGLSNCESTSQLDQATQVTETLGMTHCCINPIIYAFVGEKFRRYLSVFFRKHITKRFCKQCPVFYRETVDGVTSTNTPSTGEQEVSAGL
Assay: Calcium mobilization assay (FLIPR, CHOK1-CCR2B-A5 cells, 20 nM MCP-1)
Assay type: cell-based
Conditions: Ca mobilisation assay, CCR2, antagonist activity vs 20 nM MCP-1
Outline: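 FLIPR Fluo-4 calcium readout in CHO-K1 cells stably overexpressing human CCR2B; compounds first monitored 80 s for agonist activity, then after 20-30 min at 30 °C challenged with 20 nM MCP-1. Response is max minus basal fluorescence; antagonist value is concentration giving 50% inhibition of specific calcium increase.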

Row | IC50 | SMILES
1 | 619 nM | CO[C@@H]1CN(CCCN2CCN(C(=O)/C=C/c3ccc(Cl)c(Cl)c3)CCC2=O)CC[C@@H]1CO (racemic) [Example 269, (rac,cis)-1-[(E)-3-(3,4-Dichloro-phenyl)-acryloyl]-4-[3-(3-methoxy-4-hydroxymethyl-piperidin-1-yl)-propyl]-[1,4]diazepan-5-one]
2 | 10 nM | C[C@]1(CO)CCN(CCCN2CCN(C(=O)/C=C/c3ccc(Cl)c(Cl)c3)CCC2=O)C[C@H]1O (racemic) [Example 270, (rac,cis)-1-[(E)-3-(3,4-Dichloro-phenyl)-acryloyl]-4-[3-(3-hydroxy-4-hydroxymethyl-4-methyl-piperidin-1-yl)-propyl]-[1,4]diazepan-5-one]
3 | 55 nM | C[C@@]1(CO)CCN(CCCN2CCN(C(=O)/C=C/c3ccc(Cl)c(Cl)c3)CCC2=O)C[C@H]1O (racemic) [Example 271, (rac,trans)-1-[(E)-3-(3,4-Dichloro-phenyl)-acryloyl]-4-[3-(3-hydroxy-4-hydroxymethyl-4-methyl-piperidin-1-yl)-propyl]-[1,4]diazepan-5-one]
4 | 191 nM | CC1CCC(O)CN1CCCN1CCN(C(=O)/C=C/c2ccc(Cl)c(Cl)c2)CCC1=O (racemic) [Example 272]
5 | 313 nM | O=C(/C=C/c1ccc(Cl)c(Cl)c1)N1CCC(=O)N(CCCN2CC(O)CCC2CO)CC1 (racemic) [Example 273]
6 | 4 nM | CC1(C)CCN(CCCN2CCN(C(=O)/C=C/c3ccc(Cl)c(Cl)c3)CCC2=O)CC1O (racemic) [Example 274]
7 | 1290 nM | CN(C)C1CCN(CCCN2CCN(C(=O)/C=C/c3ccc(Cl)c(Cl)c3)CCC2=O)C1 (racemic) [Example 277, (rac)-1-[(E)-3-(3,4-Dichloro-phenyl)-acryloyl]-4-[3-(3-dimethylamino-pyrollidin-1-yl)-propyl]-[1,4]diazepan-5-one]
8 | 540 nM | CCN(CC)C1CCN(CCCN2CCN(C(=O)/C=C/c3ccc(Cl)c(Cl)c3)CCC2=O)C1 (racemic) [Example 278, (rac)-1-[(E)-3-(3,4-Dichloro-phenyl)-acryloyl]-4-[3-(3-diethylamino-pyrollidin-1-yl)-propyl]-[1,4]diazepan-5-one]
9 | 21 nM | CC1CCN(CC(O)CN2CCN(C(=O)/C=C/c3ccc(Cl)c(Cl)c3)CCC2=O)CC1O (racemic) [Example 280]
10 | 129 nM | O=C(/C=C/c1ccc(Cl)c(Cl)c1)N1CCC(=O)N(CC(O)CN2CCCC(O)C2)CC1 (racemic) [Example 281]
11 | 212 nM | C[C@H]1[C@H](O)CCCN1CC(O)CN1CCN(C(=O)/C=C/c2ccc(Cl)c(Cl)c2)CCC1=O (mixture of isomers) [Example 282]
12 | 311 nM | COC1CCCN(CC(O)CN2CCN(C(=O)/C=C/c3ccc(Cl)c(Cl)c3)CCC2=O)C1 (racemic) [Example 283]
13 | 717 nM | O=C(/C=C/c1ccc(Cl)c(Cl)c1)N1CCC(=O)N(CC(O)CN2CC[C@@H](F)[C@H](O)C2)CC1 (mixture of isomers) [Example 284]
14 | 206 nM | CC1CCCN(CC(O)CN2CCN(C(=O)/C=C/c3ccc(Cl)c(Cl)c3)CCC2=O)C1 (racemic) [Example 288]
15 | 296 nM | O=C(/C=C/c1ccc(Cl)c(Cl)c1)N1CCC(=O)N(CC(O)CN2CCCC(CO)C2)CC1 (racemic) [Example 289]
16 | 199 nM | O=C(/C=C/c1ccc(Cl)c(Cl)c1)N1CCC(=O)N(CC(O)CN2CCCCC2CO)CC1 (racemic) [Example 290]
17 | 404 nM | O=C(/C=C/c1ccc(Cl)c(Cl)c1)N1CCC(=O)N(CC(O)CN2CCC(CO)CC2)CC1 (racemic) [Example 291, (rac)-(1-[(E)-3-(3,4-Dichloro-phenyl)-acryloyl]-4-[2-hydroxy-3-(4-hydroxymethyl-piperidin-1-yl)-propyl]-[1,4]diazepan-5-one]
18 | 1120 nM | COCC1CCCN(CC(O)CN2CCN(C(=O)/C=C/c3ccc(Cl)c(Cl)c3)CCC2=O)C1 (racemic) [Example 293]
19 | 298 nM | CC(C)N1CCN(CC(O)CN2CCN(C(=O)/C=C/c3ccc(Cl)c(Cl)c3)CCC2=O)CC1 (racemic) [Example 296]
20 | 281 nM | O=C(/C=C/c1ccc(Cl)c(Cl)c1)N1CCC(=O)N(CC(O)CN2CCN(C3CCCC3)CC2)CC1 (racemic) [Example 298]
21 | 981 nM | CC1CN(CC(O)CN2CCN(C(=O)/C=C/c3ccc(Cl)c(Cl)c3)CCC2=O)CCC1O (racemic) [Example 300]
22 | 977 nM | CC(C)N1CCN(CC(O)CN2CCN(C(=O)/C=C/c3ccc(Cl)c(Cl)c3)CCC2=O)CC1C (racemic) [Example 301]
23 | 257 nM | CC1(O)CCCN(CC(O)CN2CCN(C(=O)/C=C/c3ccc(Cl)c(Cl)c3)CCC2=O)C1 (racemic) [Example 303]
24 | 192 nM | CC1(CO)CCCN(CC(O)CN2CCN(C(=O)/C=C/c3ccc(Cl)c(Cl)c3)CCC2=O)C1 (racemic) [Example 305]
25 | 391 nM | COCC1(C)CCCN(CC(O)CN2CCN(C(=O)/C=C/c3ccc(Cl)c(Cl)c3)CCC2=O)C1 (racemic) [Example 306]

Row | IC50 | SMILES
26 | 16 nM | O=C(/C=C/c1ccc(Cl)c(Cl)c1)N1CCC(=O)N(CC(O)CN2CCC3(CC3)C(O)C2)CC1 (racemic) [Example 309, (rac)-1-[(E)-3-(3,4-Dichloro-phenyl)-acryloyl]-4-[2-hydroxy-3-(4-hydroxy-6-aza-spiro[2.5]oct-6-yl)-propyl]-[1,4]diazepan-5-one]
27 | 717 nM | C[C@@H]1CCN(CC(O)CN2CCN(C(=O)/C=C/c3ccc(Cl)c(Cl)c3)CCC2=O)C[C@H]1O (mixture of isomers) [Example 315, (rac)-1-[(E)-3-(3,4-Dichloro-phenyl)-acryloyl]-4-[2-hydroxy-3-(trans-3-hydroxy-4-methyl-piperidin-1-yl)-propyl]-[1,4]diazepan-5-one]
28 | 755 nM | C[C@@H]1CN(CC(O)CN2CCN(C(=O)/C=C/c3ccc(Cl)c(Cl)c3)CCC2=O)CC[C@H]1O (mixture of isomers) [Example 316, (rac)-1-[(E)-3-(3,4-Dichloro-phenyl)-acryloyl]-4-[2-hydroxy-3-(trans-4-hydroxy-3-methyl-piperidin-1-yl)-propyl]-[1,4]diazepan-5-one]
29 | 528 nM | O=C(/C=C/c1ccc(Cl)c(Cl)c1)N1CCC(=O)N(CC(O)CN2CCC(O)C3(CC3)C2)CC1 (racemic) [Example 317]
30 | 707 nM | C[C@@H]1CN(CC(O)CN2CCN(C(=O)C=Cc3ccc(Cl)c(Cl)c3)CCC2=O)CC[C@@H]1O (mixture of isomers) [Example 318]
31 | 265 nM | CC1(CO)CCN(CC(O)CN2CCN(C(=O)/C=C/c3ccc(Cl)c(Cl)c3)CCC2=O)CC1 (racemic) [Example 319]
32 | 1490 nM | CN(CCO)CC(O)CN1CCN(C(=O)/C=C/c2ccc(Cl)c(Cl)c2)CCC1=O (racemic) [Example 320]
33 | 1200 nM | CC1(CO)CCCN1CC(O)CN1CCN(C(=O)C=Cc2ccc(Cl)c(Cl)c2)CCC1=O (racemic) [Example 322]
34 | 215 nM | CC1(C)CN(CC(O)CN2CCN(C(=O)/C=C/c3ccc(Cl)c(Cl)c3)CCC2=O)CCC1O (racemic) [Example 324]
35 | 741 nM | CC(C)CN1CCN(CC(O)CN2CCN(C(=O)C=Cc3ccc(Cl)c(Cl)c3)CCC2=O)CC1 (racemic) [Example 325]
36 | 999 nM | O=C(/C=C/c1ccc(Cl)c(Cl)c1)N1CCC(=O)N(CC(O)CN2CCC3(CCCO3)CC2)CC1 (racemic) [Example 326]
37 | 864 nM | CCN(CC)C1CCN(CCN2CCN(C(=O)/C=C/c3ccc(Cl)c(Cl)c3)CCC2=O)C1 (racemic) [Example 347]
38 | 765 nM | CC1CCCN1CCN1CCN(C(=O)/C=C/c2ccc(Cl)c(Cl)c2)CCC1=O (racemic) [Example 348]
39 | 982 nM | O=C(/C=C/c1ccc(Cl)c(Cl)c1)N1CCC(=O)N(CCN[C@@H]2CCCC[C@H]2O)CC1 (racemic) [Example 355]
40 | 873 nM | CC1CN(CC(O)CCN2CCN(C(=O)/C=C/c3ccc(Cl)c(Cl)c3)CCC2=O)CCC1O (racemic) [Example 358]
41 | 807 nM | CC1CCN(CC(O)CCN2CCN(C(=O)/C=C/c3ccc(Cl)c(Cl)c3)CCC2=O)CC1O (racemic) [Example 359]
42 | 179 nM | COCC1CCN(CC(O)CCN2CCN(C(=O)/C=C/c3ccc(Cl)c(Cl)c3)CCC2=O)CC1 (racemic) [Example 360]
43 | 226 nM | COCC1CCCN(CC(O)CCN2CCN(C(=O)/C=C/c3ccc(Cl)c(Cl)c3)CCC2=O)C1 (racemic) [Example 361]
44 | 73 nM | CC1(CO)CCCCN1CC(O)CCN1CCN(C(=O)/C=C/c2ccc(Cl)c(Cl)c2)CCC1=O (racemic) [Example 363]
45 | 531 nM | COC(=O)NC1CCN(CC(O)CCN2CCN(C(=O)/C=C/c3ccc(Cl)c(Cl)c3)CCC2=O)CC1 (racemic) [Example 364]
46 | 341 nM | CC(=O)NC1CCN(CC(O)CCN2CCN(C(=O)/C=C/c3ccc(Cl)c(Cl)c3)CCC2=O)CC1 (racemic) [Example 370]
47 | 1230 nM | C[C@@H]1CN(CC(O)CCN2CCN(C(=O)/C=C/c3ccc(Cl)c(Cl)c3)CCC2=O)CC[C@H]1O (mixture of isomers) [Example 372, (rac)-1-[(E)-3-(3,4-Dichloro-phenyl)-acryloyl]-4-[3-hydroxy-4-(trans-4-hydroxy-3-methyl-piperidin-1-yl)-butyl]-[1,4]diazepan-5-one]
48 | 580 nM | O=C(/C=C/c1ccc(Cl)c(Cl)c1)N1CCC(=O)N(CCC(O)CN2CCCCC2CO)CC1 (racemic) [Example 374]
49 | 274 nM | CC1CCCCN1CC(O)CCN1CCN(C(=O)/C=C/c2ccc(Cl)c(Cl)c2)CCC1=O (racemic) [Example 375]
